Columns and labels:
HT-1080 = test: Antiproliferative activity against human HT-1080 cells assessed as cell growth inhibition incubated for 72 hrs by MTT assay; assay type: functional, cell-based; settings: HT-1080, 72 h
SGC-7901 [1] = test: Antiproliferative activity against human SGC-7901 cells assessed as cell growth inhibition incubated for 72 hrs by MTT assay; assay type: functional, cell-based; settings: SGC-7901, 72 h
MCF7 = test: Antiproliferative activity against human MCF7 cells assessed as cell growth inhibition incubated for 72 hrs by MTT assay; assay type: functional, cell-based; settings: MCF7, 72 h
SGC-7901 [2] = test: Induction of cell cycle arrest in human SGC-7901 cells assessed as accumulation at S phase at 2 times IC50 incubated for 24 hrs by PI/RNase staining based flow cytometry (reference value: 44 %); assay type: functional
SGC-7901 [3] = test: Induction of cell cycle arrest in human SGC-7901 cells assessed as accumulation at G2/M phase at 2 times IC50 incubated for 72 hrs by PI/RNase staining based flow cytometry (reference value: 9 %); assay type: functional
[4] = Selectivity index, ratio of IC50 for HUVEC cells to IC50 for human SGC-7901 cells; assay type: functional
SGC-7901 [5] = test: Induction of cell cycle arrest in human SGC-7901 cells assessed as accumulation at sub-G1 phase at 2 times IC50 incubated for 6 hrs by PI/RNase staining based flow cytometry (reference value: 6 %); assay type: functional
SGC-7901 [6] = test: Induction of cell cycle arrest in human SGC-7901 cells assessed as accumulation at G0/G1 phase at 2 times IC50 incubated for 48 hrs by PI/RNase staining based flow cytometry (reference value: 41 %); assay type: functional
SGC-7901 [7] = test: Induction of cell cycle arrest in human SGC-7901 cells assessed as accumulation at G2/M phase at 2 times IC50 incubated for 24 hrs by PI/RNase staining based flow cytometry (reference value: 9 %); assay type: functional
SGC-7901 [8] = test: Induction of cell cycle arrest in human SGC-7901 cells assessed as accumulation at G0/G1 phase at 2 times IC50 incubated for 6 hrs by PI/RNase staining based flow cytometry (reference value: 41 %); assay type: functional
SGC-7901 [9] = test: Induction of cell cycle arrest in human SGC-7901 cells assessed as accumulation at G0/G1 phase at 2 times IC50 incubated for 24 hrs by PI/RNase staining based flow cytometry (reference value: 41 %); assay type: functional
SGC-7901 [10] = test: Induction of cell cycle arrest in human SGC-7901 cells assessed as accumulation at sub-G1 phase at 2 times IC50 incubated for 48 hrs by PI/RNase staining based flow cytometry (reference value: 6 %); assay type: functional
SGC-7901 [11] = test: Induction of cell cycle arrest in human SGC-7901 cells assessed as accumulation at S phase at 2 times IC50 incubated for 6 hrs by PI/RNase staining based flow cytometry (reference value: 44 %); assay type: functional
SGC-7901 [12] = test: Induction of cell cycle arrest in human SGC-7901 cells assessed as accumulation at sub-G1 phase at 2 times IC50 incubated for 12 hrs by PI/RNase staining based flow cytometry (reference value: 6 %); assay type: functional
SGC-7901 [13] = test: Induction of cell cycle arrest in human SGC-7901 cells assessed as accumulation at sub-G1 phase at 2 times IC50 incubated for 72 hrs by PI/RNase staining based flow cytometry (reference value: 6 %); assay type: functional
SGC-7901 [14] = test: Induction of cell cycle arrest in human SGC-7901 cells assessed as accumulation at S phase at 2 times IC50 incubated for 12 hrs by PI/RNase staining based flow cytometry (reference value: 44 %); assay type: functional
[15] = Cytotoxicity against HUVEC cells assessed as cell growth inhibition incubated for 72 hrs by MTT assay; assay type: toxicity, cell-based; settings: human
SGC-7901 [16] = test: Induction of cell cycle arrest in human SGC-7901 cells assessed as accumulation at G2/M phase at 2 times IC50 incubated for 12 hrs by PI/RNase staining based flow cytometry (reference value: 9 %); assay type: functional
SGC-7901 [17] = test: Induction of cell cycle arrest in human SGC-7901 cells assessed as accumulation at G0/G1 phase at 2 times IC50 incubated for 72 hrs by PI/RNase staining based flow cytometry (reference value: 41 %); assay type: functional
SGC-7901 [18] = test: Induction of cell cycle arrest in human SGC-7901 cells assessed as accumulation at sub-G1 phase at 2 times IC50 incubated for 24 hrs by PI/RNase staining based flow cytometry (reference value: 6 %); assay type: functional
SGC-7901 [19] = test: Induction of cell cycle arrest in human SGC-7901 cells assessed as accumulation at G2/M phase at 2 times IC50 incubated for 48 hrs by PI/RNase staining based flow cytometry (reference value: 9 %); assay type: functional
SGC-7901 [20] = test: Induction of cell cycle arrest in human SGC-7901 cells assessed as accumulation at G2/M phase at 2 times IC50 incubated for 6 hrs by PI/RNase staining based flow cytometry (reference value: 9 %); assay type: functional
SGC-7901 [21] = test: Induction of cell cycle arrest in human SGC-7901 cells assessed as accumulation at G0/G1 phase at 2 times IC50 incubated for 12 hrs by PI/RNase staining based flow cytometry (reference value: 41 %); assay type: functional
SGC-7901 [22] = test: Induction of cell cycle arrest in human SGC-7901 cells assessed as accumulation at S phase at 2 times IC50 incubated for 72 hrs by PI/RNase staining based flow cytometry (reference value: 44 %); assay type: functional
SGC-7901 [23] = test: Induction of cell cycle arrest in human SGC-7901 cells assessed as accumulation at S phase at 2 times IC50 incubated for 48 hrs by PI/RNase staining based flow cytometry (reference value: 44 %); assay type: functional
4T1 = test: Antitumor activity against mouse 4T1 cells allografted in Balb/c mouse assessed as tumor weight at 5 mg/kg, iv administered every other day measured after 12 days (reference value: 448 mg); assay type: functional; settings: time 12 day
Tubulin (Homo sapiens) = Tubulin (Homo sapiens) (UniProt P68371+Q9H4B7+P0DPH7+P68366+Q13509+Q71U36+P04350+Q3ZCM7+P07437+P68363+Q9BQE3+Q6PEY2+Q13885+Q9BVA1+Q9BUF5); test: Binding affinity to tubulin (unknown origin) at colchicine binding site assessed as tubulin-colchicine complex competition rate at 1.25 uM preincubated for 45 mins followed by colchicine addition by fluorescence based assay relative to control; assay type: protein-complex assay

COc1cc(-c2nc3scc(-c4ccc(F)c(F)c4)n3n2)cc(OC)c1OC
IC50 (HT-1080): 2.85 µM
IC50 (SGC-7901 [1]): 8.11 µM
IC50 (MCF7): 4.97 µM

COc1cc(-c2nc3scc(-c4ccc(Cl)cc4)n3n2)cc(OC)c1OC
IC50 (HT-1080): 3.75 µM
IC50 (SGC-7901 [1]): 2.19 µM
IC50 (MCF7): 4.64 µM

COc1ccc(-c2csc3nc(-c4cc(OC)c(OC)c(OC)c4)nn23)cc1
IC50 (HT-1080): 3.76 µM
IC50 (SGC-7901 [1]): 6.19 µM
IC50 (MCF7): 8.28 µM

COc1cc(-c2nc3scc(-c4ccc(F)cc4)n3n2)cc(OC)c1OC
IC50 (HT-1080): > 30 µM
IC50 (SGC-7901 [1]): > 30 µM
IC50 (MCF7): > 30 µM

COc1cc(-c2nc3scc(-c4cccc(Br)c4)n3n2)cc(OC)c1OC
IC50 (HT-1080): 1.71 µM
IC50 (SGC-7901 [1]): 0.62 µM
IC50 (MCF7): 3.46 µM

COc1cc(-c2nc3scc(-c4cc(F)cc(F)c4)n3n2)cc(OC)c1OC
IC50 (HT-1080): 2.31 µM
IC50 (SGC-7901 [1]): 0.61 µM
IC50 (MCF7): 3.86 µM

COc1cc(-c2nc3scc(-c4ccccc4Cl)n3n2)cc(OC)c1OC
IC50 (HT-1080): 3.38 µM
IC50 (SGC-7901 [1]): 4.47 µM
IC50 (MCF7): 7.48 µM

COc1cc(-c2nc3scc(-c4cccc(F)c4)n3n2)cc(OC)c1OC
IC50 (HT-1080): 2.74 µM
IC50 (SGC-7901 [1]): 0.78 µM
IC50 (MCF7): 4.86 µM

COc1cc2c(c(OC)c1OC)-c1ccc(OC)c(=O)cc1[C@@H](NC(C)=O)CC2 [COLCHICINE]
Activity (SGC-7901 [2]): 12%
Activity (SGC-7901 [3]): 50%
Ratio IC50 [4]: 1.91
Activity (SGC-7901 [5]): 9%
IC50 (HT-1080): 0.073 µM
Activity (SGC-7901 [6]): 0%
IC50 (SGC-7901 [1]): 0.11 µM
Activity (SGC-7901 [7]): 64%
Activity (SGC-7901 [8]): 33%
Activity (SGC-7901 [9]): 10%
Activity (SGC-7901 [10]): 16%
Activity (SGC-7901 [11]): 42%
Activity (SGC-7901 [12]): 12%
Activity (SGC-7901 [13]): 41%
IC50 (MCF7): 0.068 µM
Activity (SGC-7901 [14]): 16%
IC50 at 72 h [15]: 0.21 µM
Activity (SGC-7901 [16]): 52%
Activity (SGC-7901 [17]): 1%
Activity (SGC-7901 [18]): 14%
Activity (SGC-7901 [19]): 72%
Activity (SGC-7901 [20]): 16%
Activity (SGC-7901 [21]): 20%
Activity (SGC-7901 [22]): 8%
Activity (SGC-7901 [23]): 12%

COc1cc(-c2nc3scc(-c4cc(C)cc(C)c4)n3n2)cc(OC)c1OC
IC50 (HT-1080): 1.42 µM
IC50 (SGC-7901 [1]): 0.55 µM
IC50 (MCF7): 5.41 µM

Nc1ccn([C@@H]2O[C@H](CO)[C@@H](O)C2(F)F)c(=O)n1 [GEMCITABINE]
Activity (4T1): 17.02 mg

COc1cc(-c2nc3scc(-c4cccc(Cl)c4)n3n2)cc(OC)c1OC
IC50 (HT-1080): 1.53 µM
IC50 (SGC-7901 [1]): 0.43 µM
IC50 (MCF7): 3.09 µM

COc1cc(-c2nc3scc(-c4ccc(C)cc4)n3n2)cc(OC)c1OC
IC50 (HT-1080): 1.51 µM
IC50 (SGC-7901 [1]): 3.66 µM
IC50 (MCF7): 2.58 µM

COc1cc(-c2nc3scc(-c4ccccc4F)n3n2)cc(OC)c1OC
IC50 (HT-1080): 1.65 µM
IC50 (SGC-7901 [1]): 7.3 µM
IC50 (MCF7): 5.89 µM

COc1ccc(/C=C\c2cc(OC)c(OC)c(OC)c2)cc1O
Activity (Tubulin (Homo sapiens)): 23.8%

COc1cccc(-c2csc3nc(-c4cc(OC)c(OC)c(OC)c4)nn23)c1
IC50 (HT-1080): 2.18 µM
IC50 (SGC-7901 [1]): 0.94 µM
IC50 (MCF7): 4.94 µM

COc1cc(-c2nc3scc(-c4cccc(N)c4)n3n2)cc(OC)c1OC
IC50 (HT-1080): 2.13 µM
IC50 (SGC-7901 [1]): 0.82 µM
IC50 (MCF7): 3.61 µM

COc1cc(-c2nc3scc(-c4ccccc4Br)n3n2)cc(OC)c1OC
IC50 (HT-1080): 1.36 µM
IC50 (SGC-7901 [1]): 6.41 µM
IC50 (MCF7): 5.26 µM

COc1cc(-c2nc3scc(-c4ccc([N+](=O)[O-])cc4)n3n2)cc(OC)c1OC
IC50 (HT-1080): 4.3 µM
IC50 (SGC-7901 [1]): 3.03 µM
IC50 (MCF7): > 30 µM

COc1cc(-c2nc3scc(-c4ccccc4)n3n2)cc(OC)c1OC
IC50 (HT-1080): 3.64 µM
IC50 (SGC-7901 [1]): 0.88 µM
IC50 (MCF7): 4.38 µM

COc1cc(-c2nc3scc(-c4cccc([N+](=O)[O-])c4)n3n2)cc(OC)c1OC
IC50 (HT-1080): 1.5 µM
IC50 (SGC-7901 [1]): 0.75 µM
IC50 (MCF7): 3.13 µM

COc1ccc(-c2csc3nc(-c4cc(OC)c(OC)c(OC)c4)nn23)cc1OC
IC50 (HT-1080): 11.7 µM
IC50 (SGC-7901 [1]): 3.69 µM
IC50 (MCF7): 5.88 µM

COc1ccc(-c2csc3nc(-c4cc(OC)c(OC)c(OC)c4)nn23)cc1F
IC50 (HT-1080): 3.79 µM
IC50 (SGC-7901 [1]): 10 µM
IC50 (MCF7): 5.08 µM

COc1cc(-c2nc3scc(-c4ccc(C(F)(F)F)cc4)n3n2)cc(OC)c1OC
IC50 (HT-1080): 2.91 µM
IC50 (SGC-7901 [1]): 4.09 µM
IC50 (MCF7): 12.2 µM

COc1cc(-c2nc3scc(-c4ccc(Br)cc4)n3n2)cc(OC)c1OC
IC50 (HT-1080): 7.49 µM
IC50 (SGC-7901 [1]): 5.82 µM
IC50 (MCF7): 6.88 µM

COc1ccccc1-c1csc2nc(-c3cc(OC)c(OC)c(OC)c3)nn12
IC50 (HT-1080): 7.55 µM
IC50 (SGC-7901 [1]): 7.25 µM
IC50 (MCF7): 4.99 µM
